Patent US20160264593A1 (priority 2013, published 2016)
pIC50: −log10 of the molar value. Read-outs that look alike come from different tables or passages of the source.

How the values were obtained:
[1] = tested on: PP2A in circulating white blood cells; test: Inhibition of PP2A in circulating white blood cells after slow iv 100; format: in vivo; conditions: rat
[2] = Microsomal stability, monkey microsomes; format: in vitro ADME; conditions: relative to verapamil
[3] = tested on: human cancer cell lines; test: IC50 for a broad spectrum of human cancer cell lines; format: cell-based
[4] = tested on: U251 human GBM cells; conditions: 100 ip together with radiation, daily for 5 days x 3 courses; 6 months plus follow-up
Method: The mechanism of potentiation is impairment of multiple steps in a DNA-damage repair process and inhibition of exit from mitosis. […] Mice bearing subcutaneous (sc) xenografts of U251 human GBM cells were treated with compound 100 intraperitoneally together with radiation, each given daily for 5 days×3 courses.

[5] = rat, in vivo
[6] = rat, in vivo; remark: listed apart in the source
[7] = day 4, cited from earlier work
[8] = Oral administration of 100 and 151 (Discussion): oral bioavailability, plasma and brain levels
[9] = set-up: species or system SD rats; conditions: male, SD, rat, in vivo, iv, 1 mg/kg
Method: 105 was dissolved in 4% NaHCO3 in saline for IV administration. The detailed procedure of dosing solution preparation was presented in Appendix I.
Thirteen (13) animals were placed on the study. The animals in IV arm were free access to food and water. One extra animal was used for blank liver and plasma generation (5 mL per animal). The resulting blank liver and plasma was then applied to the development of bioanalytical method and sample bioanalysis for the entire study.
The IV injection was conducted via foot dorsal vein. Animals were free access to food and water before dose.
The animal is restrained manually. Approximately 150 μL of blood/time point is collected into sodium heparin tube via cardiac puncture for terminal bleeding (anesthetized under carbon dioxide). Blood sample will be put on ice and centrifuged to obtain plasma sample (2000 g, 5 min under 4° C.) within 10 minutes.
The animal will be euthanized with carbon dioxide inhalation. Open abdominal cavity with scissor to expose internal organs. Hold the carcass in an upright position and allow the organs to fall forward. Cut the connective tissues and remove the organs. […]
The PK parameters were determined by non-compartmental model of non-compartmental analysis tool, Pharsight Phoenix WinNonlin® 6.2 software. […]

SMILES: CN1CCN(C(=O)C2C3CCC(O3)C2C(=O)O)CC1 (stereo not shown) [Compound 100, 3-(4-methylpiperazine-1-carbonyl)-7-oxa-bicyclo[2,2,1]-heptane-2-carboxylic acid]
- inhibition of PP2A in circulating white blood cells ([1]; 100 slow iv 0.375 mg/kg): 9%
- inhibition of PP2A in circulating white blood cells ([1]; 100 slow iv 0.75 mg/kg): 15%
- inhibition of PP2A in circulating white blood cells ([1]; 100 slow iv 1.5 mg/kg): 25%
- stability in the presence of microsomes [2]: stable relative to verapamil
- pIC50 [3]: 5.52 to 6.00
- xenografts eliminated [4]: 60%
- presence in plasma after oral administration (statement) [5]: little is present in plasma
- passage of the blood brain barrier (BBB) (statement) [6]: does not readily pass the blood brain barrier
- Cl ([7]; MALE rats, 0.5 mg/kg): 17.85 mL/min/kg
- Cl ([7]; MALE rats, 0.75 mg/kg): 22.32 mL/min/kg
- Cl ([7]; MALE rats, 1.25 mg/kg): 15.8 mL/min/kg
- % AUC* Extrapolated ([7]; female rats, 0.5 mg/kg): 5.6%
- AUC* ([7]; female rats, 0.5 mg/kg): 479 ng·h/mL
- AUClast ([7]; female rats, 0.5 mg/kg): 452 ng·h/mL
- Cl ([7]; female rats, 0.5 mg/kg): 17.42 mL/min/kg
- Co ([7]; female rats, 0.5 mg/kg): 1497 ng/mL
- DN AUClast ([7]; female rats, 0.5 mg/kg): 904
- SC AUClast ([7]; female rats, 0.5 mg/kg): 17.7 ng·h/mL
- T1/2 ([7]; female rats, 0.5 mg/kg): 15 min
- Vz ([7]; female rats, 0.5 mg/kg): 0.378 L/kg
- % AUC* Extrapolated ([7]; female rats, 0.75 mg/kg): 27%
- AUC* ([7]; female rats, 0.75 mg/kg): 949 ng·h/mL
- AUClast ([7]; female rats, 0.75 mg/kg): 691 ng·h/mL
- Cl ([7]; female rats, 0.75 mg/kg): 13.2 mL/min/kg
- Co ([7]; female rats, 0.75 mg/kg): 2347 ng/mL
- DN AUClast ([7]; female rats, 0.75 mg/kg): 921
- SC AUClast ([7]; female rats, 0.75 mg/kg): 54.0 ng·h/mL
- T1/2 ([7]; female rats, 0.75 mg/kg): 35.4 min
- Vz ([7]; female rats, 0.75 mg/kg): 0.677 L/kg
- % AUC* Extrapolated ([7]; female rats, 1.25 mg/kg): 17%
- AUC* ([7]; female rats, 1.25 mg/kg): 2853 ng·h/mL
- AUClast ([7]; female rats, 1.25 mg/kg): 2359 ng·h/mL
- Cl ([7]; female rats, 1.25 mg/kg): 7.3 mL/min/kg
- Co ([7]; female rats, 1.25 mg/kg): 3849 ng/mL
- DN AUClast ([7]; female rats, 1.25 mg/kg): 1887
- SC AUClast ([7]; female rats, 1.25 mg/kg): 747 ng·h/mL
- T1/2 ([7]; female rats, 1.25 mg/kg): 108 min
- Vz ([7]; female rats, 1.25 mg/kg): 1.138 L/kg

SMILES: COC(=O)C1C2CCC(O2)C1C(=O)N1CCN(C)CC1 (stereo not shown) [Compound 151]
- 151 in brain tissue (statement) ([8]; 151 given by mouth to rats): barely detectable in brain tissue
- levels of compound 100 in the plasma after 151 (statement) ([8]; 151 given by mouth to rats): substantial levels of compound 100 in the plasma
- oral bioavailability ([8]; Discussion): about 60%

SMILES: O=C(O)C1C2CCC(O2)C1C(=O)O (stereo not shown) [Endothal, 7-oxabicyclo[2.2.1]heptane-2,3-dicarboxylic acid]
- AUC(0-t) [9]: 3152 ng·h/mL
- Tmax [9]: 15 min
